Measured values published in PMC12142043, “Cell-based high-content approach for SARS-CoV-2 neutralization identifies unique monoclonal antibodies and PI3K pathway inhibitors” (Frontiers in Cell and Developmental Biology, 2025).
Where a name gives a salt, the structure may show the parent alone. Read-outs that look alike come from different tables or passages of the source.

Assays:
[1] = tested on: SARS-CoV-2 (USA-WA1/2020) in Calu-3 cells; test: microbe, parasite or virus in culture; type: cell-based; conditions: for EC50: read-out: EC50 (μM) dsRNA; for Effect on dsRNA / virus in dose response: Figure 5C-F
[2] = tested on: Calu-3 cells infected with SARS-CoV-2; type: cell-based, human; parameters: key to Grouping with red cluster (mock control) in UMAP: *: Clusters with mock control in high-dose treatment; conditions: for Grouping with red cluster (mock control) in UMAP: high-dose treatment
[3] = tested on: SARS-CoV-2 (USA-WA1/2020) in Calu-3 cells; type: cell-based; conditions: Calu-3, 48 h; for dsRNA signal, AU High: high dose (10 µM); for dsRNA signal, AU Low: low dose (100 nM)
[4] = tested on: Calu-3 cells; test: cells; conditions: Homo sapiens, Calu-3, read-out: EC50 (μM) Cell count
[5] = tested on: Calu-3 cells; conditions: for EC50: read-out: EC50 (μM) Cell count, Calu-3, DAPI-stained nuclei, above 30 μM reported as >30; for Effect on host cell viability and morphology: Figure 5C-F
[6] = Severe acute respiratory syndrome coronavirus 2, Calu-3, 48 h, […], above 30 μM reported as >30
[7] = fold: cell count EC50 over dsRNA EC50
[8] = listed as Flavopiridol hydrochloride
[9] = […], above 30 μM reported as >30

Compound | EC50 [1, 6] | Selectivity index [1, 7] | Grouping with red cluster (mock control) in UMAP [2] | EC50 [4] | dsRNA signal, AU High [3] | dsRNA signal, AU Low [3] | further results
CN1CC[C@H](c2c(O)cc(O)c3c(=O)cc(-c4ccccc4Cl)oc23)[C@H](O)C1 [Flavopiridol HCl] | 11.4 µM | 0.032 | Flavopiridol HCl* | 0.364 µM | – | – | dsRNA signal, AU High [3, 8]: 187.1 AU; dsRNA signal, AU Low [3, 8]: 16139.6 AU
CC(C)NC[C@@H](C(=O)N1CCN(c2ncnc3c2[C@H](C)C[C@H]3O)CC1)c1ccc(Cl)cc1 [GDC-0068, reference compound] | > 30 µM | – | – | > 30 µM | 10110.1 AU | 18551.4 AU | –
Cc1ccc(Nc2nccc(N(C)c3ccc4c(C)n(C)nc4c3)n2)cc1S(N)(=O)=O.Cl [Pazopanib HCl] | – | >3.5 | Pazopanib HCl* | – | 14157.8 AU | 9479.9 AU | EC50 [1, 9]: 8.64 µM; EC50 [5]: > 30 µM
CC1(C)OCCn2c1nc1c(N3CCOCC3)nc(-c3cnc(N)nc3)nc12 [GDC-0084] | 1.5 µM | 0.873 | GDC-0084* | 1.31 µM | – | – | –
O=C(NC1CCNCC1)c1[nH]ncc1NC(=O)c1c(Cl)cccc1Cl [AT7519] | 1.23 µM | 0.525 | – | 0.646 µM | 23488.0 AU | 46607.1 AU | –
Cc1ccc(F)c(NC(=O)Nc2ccc(-c3cccc4[nH]nc(N)c34)cc2)c1 [Linifanib] | 20.5 µM | >1.4 | – | > 30 µM | 6252.9 AU | 21480.2 AU | –
O=C1NC(=O)[C@@H](c2cn3c4c(cccc24)CCC3)[C@@H]1c1c[nH]c2ccccc12 [Tivantinib] | > 30 µM | <.07 | – | 2.21 µM | 46631.5 AU | 19485.6 AU | –
O=C(O[C@@H]1Cc2c(O)cc(O)cc2O[C@@H]1c1cc(O)c(O)c(O)c1)c1cc(O)c(O)c(O)c1 [Epigallocatechin gallate (EGCG), Epigallocatechin gallate] | – | – | Epigallocatechin gallate (EGCG)* | – | 14230.9 AU | 24448.0 AU | EC50 (μM) dsRNA [1, 9]: None; EC50 [5]: > 30 µM
CNC(=O)c1cc(Oc2ccc(NC(=O)Nc3ccc(Cl)c(C(F)(F)F)c3)c(F)c2)ccn1 [Regorafenib monohydrate] | 6.46 µM | >4 | – | > 30 µM | 7085.4 AU | 14285.8 AU | –
CC(C)c1cc(CNc2nc(Nc3cc(C4CC4)[nH]n3)cc(N3CCN(C)CC3)n2)on1 [XL228] | 0.0745 µM | 0.891 | XL228* | 0.0664 µM | 17836.6 AU | 39819.2 AU | –
COc1cc([C@@H]2c3cc4c(cc3[C@H](O)[C@H]3COC(=O)[C@@H]23)OCO4)cc(OC)c1OC [AXL1717] | 0.00332 µM | 246.615 | AXL1717* | 0.82 µM | 13380.1 AU | 31807.4 AU | –
CN(c1ncccc1CNc1nc(Nc2ccc3c(c2)CC(=O)N3)ncc1C(F)(F)F)S(C)(=O)=O [PF-00562271] | – | 0.510 | PF-00562271* | – | – | 36485.5 AU | EC50 [1, 9]: 8.6 µM; EC50 [5]: 4.39 µM
C[C@@H](NC(=O)c1ncnc(N)c1Cl)c1ncc(C(=O)Nc2cc(C(F)(F)F)c(Cl)cn2)s1 [MLN 2480] | 0.0998 µM | >300 | – | > 30 µM | – | – | –
CCOC(=O)C1=C[C@]2(CC)CCCN3CCc4c(n1c1ccccc41)[C@@H]32 [Vinpocetine] | 25.7 µM | >1 | – | > 30 µM | 5212.2 AU | 19993.1 AU | –
CN1CCN(c2ccc(OC(F)(F)F)c(Nc3ncc4c(n3)-c3c(c(C(N)=O)nn3CCO)CC4)c2)CC1 [NMS-1286937] | 17.8 µM | 0.005 | – | 0.0916 µM | 5848.8 AU | 38547.7 AU | –
Cc1cnc(Nc2ccc(OCCN3CCCC3)cc2)nc1Nc1cccc(S(=O)(=O)NC(C)(C)C)c1 [TG101348] | – | – | TG101348* | 1.61 µM | 3065.1 AU | 15118.2 AU | EC50 (μM) dsRNA [1, 9]: None
COCCOc1cnc2ccn([C@H](C)c3nnc4c(F)cc(-c5cnn(C)c5)cn34)c(=O)c2c1 [AMG 337, reference compound] | – | – | – | > 30 µM | 6788.1 AU | 33845.4 AU | EC50 (μM) dsRNA [1, 9]: None

Compound | EC50 [1, 6] | Selectivity index [1, 7] | Grouping with red cluster (mock control) in UMAP [2] | EC50 [4] | dsRNA signal, AU High [3] | dsRNA signal, AU Low [3] | further results
O=S(=O)(c1cccc2cnccc12)N1CCCNCC1 [Fasudil] | 0.0124 µM | 98.072 | – | 1.22 µM | – | – | –
CC[C@H](Nc1ncnc2[nH]cnc12)c1nc2cccc(F)c2c(=O)n1-c1ccccc1 [CAL-101] | 0.0521 µM | >575 | – | > 30 µM | 57616.6 AU | 3708.3 AU | –
C=CC(=O)N1CCC[C@@H](n2nc(-c3ccc(Oc4ccccc4)cc3)c3c(N)ncnc32)C1 [Ibrutinib] | 13.7 µM | – | – | > 30 µM | 3646.9 AU | 17695.2 AU | Effect on dsRNA / virus in dose response [1]: did block the virus in high concentrations; Effect on host cell viability and morphology [5]: significant cell toxicity
CC(=O)Nc1cccc(-n2c(=O)n(C3CC3)c(=O)c3c(Nc4ccc(I)cc4F)n(C)c(=O)c(C)c32)c1 [Trametinib] | 0.398 µM | >75 | – | > 30 µM | 36456.5 AU | 10541.3 AU | –
Cl.Cl.O=C(Cc1ccc(-c2ccc(OCCN3CCOCC3)cc2)cn1)NCc1ccccc1 [KX2-391 dihydrochloride] | – | 0.016 | – | – | 1685.1 AU | 2878.5 AU | EC50 [1, 9]: 8.72 µM; EC50 [5]: 0.136 µM
COc1cc(Nc2ncc(F)c(Nc3ccc4c(n3)NC(=O)C(C)(C)O4)n2)cc(OC)c1OC [R406, reference compound] | – | – | – | – | 5357.1 AU | 30563.4 AU | EC50 (μM) dsRNA [1, 9]: None; EC50 [5]: 1.84 µM
O=C1Nc2ccccc2/C1=C1/Nc2ccccc2C1=O [Indirubin] | – | – | – | > 30 µM | – | – | Selectivity index [1]: >26; EC50 ([1]; Severe acute respiratory syndrome coronavirus 2, Calu-3, 48 h): 1.14 µM
O=C(Nc1ncc(SCCN2CCCC2)s1)[C@]1(c2ccc(S(=O)(=O)C3CC3)cc2)C[C@H]1C1CCCCC1 [Ly2608204] | – | <0.69 | Ly2608204* | – | – | – | EC50 [1, 9]: > 30 µM; EC50 [5]: 20.9 µM
Cc1ncc(CO)c(CO)c1O [Pyridoxine] | > 30 µM | – | Pyridoxine* | > 30 µM | 17847.0 AU | 29400.2 AU | –
CCc1cc2c(cc1N1CCC(N3CCOCC3)CC1)C(C)(C)c1[nH]c3cc(C#N)ccc3c1C2=O [CH5424802] | > 30 µM | – | – | > 30 µM | – | – | Effect on dsRNA / virus in dose response [1]: reduced dsRNA very well; Shift in UMAP space with increasing concentration ([2]; Figure 5C-F): adjacent yellow cluster; Effect on host cell viability and morphology [5]: blebbing and general toxicity
CCOc1cc2ncc(C#N)c(Nc3ccc(F)c(Cl)c3)c2cc1NC(=O)/C=C/CN(C)C [Pelitinib] | – | – | Pelitinib* | 5.88 µM | – | – | EC50 (μM) dsRNA [1, 9]: None
O=c1c(-c2ccc(O)cc2)coc2cc(O)cc(O)c12 [Genistein, reference compound] | – | – | – | > 30 µM | 5526.1 AU | 19461.3 AU | EC50 (μM) dsRNA [1, 9]: None
N#CCNC(=O)c1ccc(-c2ccnc(Nc3ccc(N4CCOCC4)cc3)n2)cc1 [CYT387] | 0.0276 µM | 87.486 | – | 2.41 µM | 36485.3 AU | 15837.3 AU | –
Cn1c(=O)c(F)c(Nc2ccc(I)cc2F)c2c(=O)n(C[C@@H](O)CO)cnc21 [TAK-733, reference compound] | > 30 µM | – | – | > 30 µM | 15107.2 AU | 14755.9 AU | –
O=C(NCCN1CCCC1)c1cc(-c2ccc(CN3CCOCC3)cc2)nc2ccc(F)cc12 [DDD107498] | – | – | – | – | 38942.1 AU | 5409.3 AU | –
CCc1nc(-c2cccc(C)c2)c(-c2ccnc(NC(=O)c3ccccc3)c2)s1 [TAK-715] | – | – | – | – | 42569.8 AU | 29513.1 AU | –
